# Patent US20050020544A1, “Bicyclic CB2 cannabinoid receptor ligands” (priority 2002, published 2005)
# Read-outs that look alike come from different tables or passages of the source.
# Columns and labels:
# ICR male mice = assay: Tail flick model for acute peripheral pain, i.p.; type: in vivo, mouse
# Experimental: ICR male mice (20-30 g average body weight, Harlan, Israel) were injected i.p. at the volume dose of 5 ml/kg. Each treatment group contained at least 6 animals. Morphine HCl was used as positive control at the final dose of 5 mg/kg. Its vehicle, saline, was also included as control. The test compounds were dissolved in CREMOPHOR EL®:ethanol and diluted 1:20 in saline prior to injection, this second type of vehicle was also included as negative control. The final dose injected varied from 0.1 to 10 mg/kg. At predetermined time points after treatment injection, the animals were placed in the tail flick system (Socrel, model DS 20). Animals were gently held while their tails were located above the photoelectric cell. The tails were then illuminated (21V) at 2 cm from the distal tip and the latency time, measured in seconds, was recorded in duplicates. At the end of the study, the animals were euthanized by i.p. injection of 100 mg/kg sodium pentobarbitone.
# Two parameters were used to analyze the results, the latency time and the % of animals showing analgesia. […] The results in both cases are expressed as mean±SE. The differences between the latency times or the % of animals showing analgesia among various treatment groups was analyzed by analysis of variance (ANOVA) followed by post-hoc Tukey's test (for latency) or Fisher's exact test (for % animals). A value of p<0.05 is considered to be statistically significant.
# human CB2 receptor = human CB2 receptor (Homo sapiens, UniProt P34972); assay: biochemical; type: binding; design: purchased Perkin Elmer/NEN; host or cells: CHO cells, stably transfected (membranes); conditions: for CB2/CB1 affinity ratio: IC50 CB1/IC50 CB2; for IC50: displacement of [3H]WIN 55212-2, hCB2 CHO membranes
# Experimental: (§1) In the present invention, binding affinity is represented by the IC50 value, namely the concentration of a test compound that will displace 50% of a radiolabeled agonist from the CB receptors. […] Preferably these ratios will be obtained for human CB1 and CB2 receptors. The selectivity toward CB2, denoted CB2/CB1 affinity, is calculated as the IC50 value obtained by the test compound for the displacement of the CB1 specific radioligand divided by the IC50 value obtained for the displacement of the CB2 specific radioligand, i.e. the IC50 CB1/IC50 CB2.
# The affinities of the novel bicyclic analogs to the CB2 receptor were determined by their ability to displace [^3H]WIN 55212-2 from the receptor in membranes derived from hCB2 stably transfected CHO cells (Perkin Elmer/NEN). Membranes were diluted in assay buffer (10 mM HEPES, 1 mM MgCl2, 1 mM EDTA, 0.3 mg/ml BSA, pH=7.4) to 500 μg protein/ml. 50 μl of diluted membranes (25 μg) were incubated with 0.8 nM of [^3H]WIN 55212-2 in the presence or absence of several concentrations of the bicyclic test compounds in a total volume of 1 ml. Tested compounds were dissolved and diluted as previously described for the hCB1 assay. Non-specific binding was measured by the addition of 10 μM CP 55940. Following 40 minutes incubation at 30° C. reactions were filtered as previously described. Filters for all binding assays were counted in a β-counter and log of analog concentration versus % of binding was plotted. IC50 values were extrapolated from this plot.
# (§2) Binding to CB1 is measured by competitive inhibition of [^3H]CP55940 in HEK-293 cells stably transfected with the human CB1 receptor gene. Binding to CB2 is measured by competitive inhibition of [^3H]WIN55212-2 in CHO cells stably transfected with the human CB2 receptor gene.
# human CB1 receptor = biological target: T1, human CB1 receptor (Homo sapiens, UniProt P21554); assay: biochemical; type: binding; conditions: displacement of [3H]CP55940, hCB1 HEK-293 membranes; read-out: CB1 IC50
# T1 construct: purchased Perkin Elmer/NEN; host or cells: HEK-293 cells, stably transfected (membranes)
# Experimental: as §1
# The CB1 binding assays were performed by testing the ability of the new compounds to displace [^3H]CP55940 from the CB1 receptor on membranes derived from hCB1 stably transfected HEK-293 cells (Perkin Elmer/NEN). Membranes were diluted in the assay buffer (50 mM Tris-HCl, 2.5 mM EDTA, 5 mM MgCl2, 1 mg/ml BSA, pH=7.4) to 500 μg protein/ml. 50 μl of diluted membranes (25 μg) were incubated with [^3H]CP55940 in the presence or absence of the bicyclic test compounds in a total volume of 0.5 ml. Tested compounds were dissolved in DMSO and diluted in the assay buffer to a final concentration of 0.1% solvent. Control samples were added with identical amount of vehicle. Non-specific binding was measured by the addition of 10 μM of WIN 55212-2. Following 1.5 hours incubation at 30° C. reactions were filtered through Whatman 934A/H filters (presoaked with 0.1% Polyethylenimine (PEI)).
# as §2
# Male Sprague Dawley rats = assay: Inflammatory pain: carrageenan paw edema in rats, thermal and mechanical stimuli; type: in vivo, rat; conditions: for ΔForce (tactile stimulus) / ΔLT (thermal stimulus): 10 mg/kg i.p., three hours; for analgesic activity of the antagonists by themselves: 5 mg/kg i.p.
# Experimental: Male Sprague Dawley rats (200 g average body weight, Harlan, Israel) are transiently sedated by placement on dry ice for the duration of the injections. […] Before induction of inflammatory pain and three hours after injection, the animals reactions to pain stimuli were tested in two systems. The first stimulus was thermal and assessed by the Plantar Test according to Hargreaves, using Ugo Basile Model 7370. The scale was set to an intensity of 50 arbitrary units. The latency time till the animal lift a paw as a reaction to the thermal stimulus was recorded for both the inflamed and non-inflamed hind paws. The second stimulus was mechanical (tactile) and assessed using a Dynamic Plantar Sesthesiomether (Ugo Basile Model 73400-002).
# The results are measured as the differences between the two hind paws at time 0 and 3 hours both as ALT, for the latency time in the thermal part of the study, and as ΔForce, for the mechanical part of the study.
# Female Balb/c mice = system: Female Balb/c mice
# Experimental: The purpose of this study is to test in vivo the anti-inflammatory activity of the compounds in paw edema induced by injection of 1% carrageenan in the animal hind paw. Female Balb/c mice (20 g average body weight, Harlan, Israel) are anesthetized with a combination of xylazine and pentobarbitone diluted in sterile saline, 15 and 6 mg/kg i.p. respectively. Anesthetized mice are injected subcutaneously, in the subplantar region of one (right) paw with 0.05 ml of 1% w/v Carrageenan in sterile water. […] The test compounds, including known anti-inflammatory controls, are dissolved in CREMOPHOR EL®:ethanol and further diluted 1:20 or 1:50 in sterile saline prior to i.p. injection that takes place immediately before the carrageenan injection. Three hours after injection the animals are resedated following the previously described procedure. Paw thickness is measured using a dial thickness gauge (Spring-dial, constant low pressure gauge, Mitutoyo, TG/L-1, 0.01 mm) and paw volume is measured using a plethysmometer (model #7150, Ugo Basile, Italy). Paw Edema is expressed as the difference between the right treated and the left untreated paws of the same animal, either as Δ Paw Volume (ΔPV) in millimeters cube or as Δ Paw Thickness (ΔPT) in millimeters. Each group comprises at least 10 animals. […] At the end of the study, animals are euthanized with an i.p. injection of 100 mg/kg pentobarbitone.
# The differences among various treatment groups are analyzed by analysis of variance (ANOVA) followed by post-hoc Fisher test. A value of p<0.05 is considered to be statistically significant.
# For sake of comparison, known anti-inflammatory drugs such as Celecoxib and Dexamethasone yield respectively in the range of relevant doses 7% and 26% reduction in paw thickness at 0.1 mg/kg, 16% and 31% at 0.25 mg/kg and 24% and 33% at 0.5 mg/kg. […] It should be kept in mind that these commercially available drugs display serious side effects that prevent chronic uses without complementary protective medication.
# [1] = 10 mg/kg i.p., 330 minutes (five and a half hours)
# T1 sequence (P21554 whole entry): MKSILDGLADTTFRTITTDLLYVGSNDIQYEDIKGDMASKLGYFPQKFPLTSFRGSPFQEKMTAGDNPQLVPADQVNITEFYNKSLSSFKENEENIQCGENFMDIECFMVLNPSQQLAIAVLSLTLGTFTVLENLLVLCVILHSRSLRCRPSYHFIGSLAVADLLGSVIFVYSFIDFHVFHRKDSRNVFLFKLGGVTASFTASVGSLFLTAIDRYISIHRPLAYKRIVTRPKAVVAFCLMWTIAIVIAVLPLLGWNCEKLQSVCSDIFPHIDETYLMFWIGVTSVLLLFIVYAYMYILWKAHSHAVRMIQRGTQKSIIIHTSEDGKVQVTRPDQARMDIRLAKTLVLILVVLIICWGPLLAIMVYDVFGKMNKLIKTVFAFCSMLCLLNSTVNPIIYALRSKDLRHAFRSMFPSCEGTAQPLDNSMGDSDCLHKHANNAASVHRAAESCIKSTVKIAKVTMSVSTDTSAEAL
# Chain of human CB2 receptor (P34972 whole entry): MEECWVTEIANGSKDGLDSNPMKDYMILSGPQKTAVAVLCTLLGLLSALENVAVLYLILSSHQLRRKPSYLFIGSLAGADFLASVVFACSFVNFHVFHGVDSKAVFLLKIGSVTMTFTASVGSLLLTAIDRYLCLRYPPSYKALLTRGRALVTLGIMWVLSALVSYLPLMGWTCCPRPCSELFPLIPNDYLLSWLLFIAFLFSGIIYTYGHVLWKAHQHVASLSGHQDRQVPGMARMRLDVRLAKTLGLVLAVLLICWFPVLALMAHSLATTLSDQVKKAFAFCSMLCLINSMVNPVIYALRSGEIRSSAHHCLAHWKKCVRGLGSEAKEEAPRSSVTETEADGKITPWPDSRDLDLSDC
Molecule,CB2/CB1 affinity ratio (human CB2 receptor),IC50 (human CB1 receptor) [nM],IC50 (human CB2 receptor) [nM],also measured
"CCCCCCC(C)(C)c1cc(O)c([C@@H]2CC(=O)C3CC2C3(C)C)c(O)c1 (single isomer, unassigned; (+)) [(+) enantiomer of compound A, reference compound]",10,–,–,"latency time (ICR male mice; 4 mg/kg i.p., thirty minutes): 2.4 s"
"C#CCCCCC(C)(C)c1cc(O)c(C2C=C(C)C3CC2C3(C)C)c(O)c1 (single isomer, unassigned; (+)) [Compound E, (+)-5-(1,1-Dimethyl-hept-6-ynyl)-2-(4,6,6-trimethyl-bicyclo[3.1.1]hept-3-en-2-yl)-benzene-1,3-diol]",33,26,0.783,–
"CC(C)(c1ccc(Cl)cc1)c1cc(O)c(C2CC(=O)C3CC2C3(C)C)c(O)c1 (single isomer, unassigned; (-)) [Compound J, (−)-4-{4-[1-(4-Chloro-phenyl)-1-methyl-ethyl]-2,6-dihydroxy-phenyl]-6,6-dimethyl-bicyclo[3.1.1]heptan-2-one]",60,659,11,–
"CCC(C)(CC)c1cc(O)c(C2CC(=O)C3CC2C3(C)C)c(O)c1 (single isomer, unassigned; (-)) [Compound M, (−)-4-[4-(1-Ethyl-1-methyl-propyl)-2,6-dihydroxy-phenyl]-6,6-dimethyl-bicyclo[3.1.1]heptan-2-one]",96,3900,40.8,–
"CCCCCCC(C)(C)c1cc(O)c(C2CC(=O)[C@H]3C[C@@H]2C3(C)C)c(OC(=O)/C=C/C(=O)O)c1 (single isomer, unassigned; (-)) [Compound Z, (−)-4-{4-[1,1-Dimethyl-heptyl]-2-fumarate-6-hydroxy-phenyl}-6,6-dimethyl-bicyclo[3.1.1]heptan-2-one]",656,816,1.2,% animals showing increased analgesia (ICR male mice; [1]): about 60%; latency time (ICR male mice; [1]): 5.2 s; ΔForce (tactile stimulus) (Male Sprague Dawley rats): 2 g
"Cc1ccc(-c2cc(C(F)(F)F)nn2-c2ccc(S(N)(=O)=O)cc2)cc1 [Celecoxib, reference compound]",–,–,–,reduction in paw thickness (Female Balb/c mice; 0.1 mg/kg): 7%; reduction in paw thickness (Female Balb/c mice; 0.25 mg/kg): 16%; reduction in paw thickness (Female Balb/c mice; 0.5 mg/kg): 24%; ΔLT (thermal stimulus) (Male Sprague Dawley rats): 0 s
"CCCCC(C)(C)c1cc(O)c(C2C=C(COC(=O)C(C)(C)C)[C@H]3C[C@@H]2C3(C)C)c(O)c1 (stereo partly drawn) [Compound AH, 2,2-dimethylpropionic Acid-4-{4-[1,1-Dimethyl-pentyl]-2,6-dihydroxy-phenyl}-6,6-dimethyl-bicyclo[3.1.1]hept-2-en-2-yl Methyl Ester]",9.5,398,42,–
C#CCCCCC(C)(C)c1cc(O)c([C@H]2CC(=O)[C@H]3C[C@@H]2C3(C)C)c(O)c1 [Compound F],38,13,0.344,–
"CC(C)(CCc1ccccc1)c1cc(O)c(C2CC(=O)C3CC2C3(C)C)c(O)c1 (stereo not drawn) [Compound G, 4-[4-(1,1-Dimethyl-3-phenyl-propyl)-2,6-dihydroxy-phenyl]-6,6-dimethyl-bicyclo[3.1.1]heptan-2-one]",85,563,6.6,–
"CC1=CC(c2c(O)cc(-c3ccc(C(C)(C)C)cc3)cc2O)C2CC1C2(C)C (stereo not drawn) [Compound Q, 5-(1,1-Dimethyl-ethyl-phenyl)-2-(4,6,6-trimethyl-bicyclo[3.1.1]hept-3-en-2-yl)-benzene-1,3-diol]",53,640,12,–
"O=C(O)Cc1ccccc1Nc1c(Cl)cccc1Cl [Diclofenac, reference compound]",–,–,–,ΔForce (tactile stimulus) (Male Sprague Dawley rats): 2 g; ΔLT (thermal stimulus) (Male Sprague Dawley rats): 0 s
"CC(C(=O)O)c1cccc(C(=O)c2ccccc2)c1 (stereo not drawn) [Ketoprofen, reference compound]",–,–,–,ΔForce (tactile stimulus) (Male Sprague Dawley rats): 7 g; ΔLT (thermal stimulus) (Male Sprague Dawley rats): 0 s
"Cc1c(C(=O)NN2CCCCC2)nn(-c2ccc(Cl)cc2Cl)c1-c1ccc(Cl)cc1 [SR141716A, reference compound]",–,–,–,analgesic activity of the antagonists by themselves (Male Sprague Dawley rats): no analgesic activity
SR144528 [reference compound],–,–,–,analgesic activity of the antagonists by themselves (Male Sprague Dawley rats): no analgesic activity
